Measured values taken from US5473096A, “Substituted benzoate derivatives” (Shionogi & Co., Ltd., priority 1992, dated 1995).

The compounds below were run against T1, PLA2 (phospholipase A2) from rat platelets (Rattus norvegicus, UniProt P14423) (assay: Phospholipase A2 inhibitory activity (release of free fatty acid from 14C-labelled phosphatidylethanolamine)). Details: rat platelet PLA2; Tris-buffer 0.1M, pH 7.4; CaCl2 3 mM; 37° C., 20 minutes.
T1 construct: from tissue; host or cells: rat platelets
T1 sequence (P14423 22-146): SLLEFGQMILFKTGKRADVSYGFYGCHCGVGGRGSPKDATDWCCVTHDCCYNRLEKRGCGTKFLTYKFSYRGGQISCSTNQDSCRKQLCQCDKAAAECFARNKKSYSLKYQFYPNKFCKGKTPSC
Format: biochemical
Experimental: The compounds of the present invention were tested for their Phospholipase A2 inhibitory activity by the following procedure.
1-Palmitoyl-2-[1-^14 C]-linoleoyl L-3-Phosphatidylethanolamine (Amersham, Inc., 59 mCi/mmol) were diluted with L-α-phosphatidylethanolamine (Sigma, Co., from […]) [2,000 dpm/nmol], and the dilution was sonicated. The resultant dilution was used as a substrate. The PLA2 (phospholipase A2) which was used in the test was from rat platelets. The PLA2 and the substrate preparation were added to a solution of CaCl2 (3 mM)in Tris-buffer (0.1M, pH 7.4), and the mixture was allowed to react at 37° C. for 20 minutes. Then, the reaction was terminated by adding 1.25 ml of Dole's reagent to the reaction mixture and stirring immediately the resultant mixture. To the mixture was added 0.5 ml of distilled water and 0.8 ml of n-heptane, and the mixture was stirred, centrifuged, and the resulting supernatant was taken into another tube. To this supernatant were added additional 0.8 ml of n-heptane and silica gel, and the mixture was stirred, centrifuged, and then the supernatant was taken into vials. Toluene cocktails were added to the vials. The amount of free fatty acid released from PLA2 (DPM value) was determined using liquid scintillation counter.
Inhibitory activity (%) was estimated by the formula: [(DPM value at the addition of the inhibitor-DPM value without PLA2)/(DPM value with only PLA2 -DPM value without PLA2)]×100.

In order of rising IC50:
1. COc1c(C)c(OC(=O)c2c(C)c(C)c(OC(=O)c3c(C)c(CNCC(=O)OCc4ccccc4)c(O)c(C)c3O)c(C)c2OC)c(C)c(C)c1C(=O)O [Compound 1a, 4-[4'-(4"-Carboxy-3"-methoxy-2",5",6"-trimethylphenoxycarbony)-3'-methoxy-2',5',6'-trimethylphenoxycarbonyl]-2,5-dimethyl-6-benzyloxyglycylmethylresorcinol]  0.026 µM
2. CCCCOCc1c(C)c(C(=O)Oc2c(C)c(C)c(C(=O)Oc3c(C)c(C)c(C(=O)O)c(OC)c3C)c(OC)c2C)c(O)c(C)c1O [Compound 1d]  0.12 µM
3. COc1ccc(CCOCc2c(C)c(C(=O)Oc3c(C)c(C)c(C(=O)Oc4c(C)c(C)c(C(=O)O)c(OC)c4C)c(OC)c3C)c(O)c(C)c2O)cc1 [Compound 1c]  0.16 µM
4. CCOC(=O)CNCc1c(C)c(C(=O)Oc2c(C)c(C)c(C(=O)Oc3c(C)c(C)c(C(=O)O)c(OC)c3C)c(OC)c2C)c(O)c(C)c1O [Compound 1b]  0.17 µM
5. COc1c(C)c(OC(=O)c2c(C)c(C)c(OC(=O)c3c(C)c(CN[C@H](C)c4ccccc4)c(O)c(C)c3O)c(C)c2OC)c(C)c(C)c1C(=O)O [Compound 6b, 4-[4'-[5"-(Sec-phenethylaminomethyl)-2",4"-dihydroxy-3",6"-dimethylphenylcarboxy]-2'-methoxy-3',5',6'-trimethyl]phenylcarboxy-2-methoxy-3,5,6-trimethyl benzoic acid]  0.3 µM
6. COCc1c(C)c(C(=O)Oc2c(C)c(C)c(C(=O)Oc3c(C)c(C)c(C(=O)O)c(OC)c3C)c(OC)c2C)c(O)c(C)c1O [Compound 1g]  0.34 µM
7. COc1c(C)c(OC(=O)c2c(C)c(C)c(OC(=O)c3c(C)c(CO)c(O)c(C)c3O)c(C)c2OC)c(C)c(C)c1C(=O)O [Compound 1f]  0.38 µM
8. COc1c(C)c(OC(=O)c2c(C)c(C)c(OC(=O)c3c(C)c(CNCCCCC(NC(=O)OCc4ccccc4)C(N)=O)c(O)c(C)c3O)c(C)c2OC)c(C)c(C)c1C(=O)O (stereo not drawn) [Compound 1e]  1.1 µM
9. COCc1c(C)c(C(=O)Oc2c(C)c(C)c(C(=O)O)c(OC)c2C)c(OC)c(C)c1O [Compound 1i]  3.9 µM
